# Experiments:
# Type in all cases: cell-based, human
# p-ERK protein = assay: Expression ratios of ERK and p-ERK on membrane with ERK and p-ERK antibodies (FIG. 5); details: Ataluren 20 μg/ml or 30 μg/ml (FIG. 5)
# Method: (§1) The skin fibroblasts from donated normal individuals and neurofibromatosis patients were treated with Ataluren at concentrations of 20 μg/ml and 30 μg/ml and cultured, in a DMEM supplemented with 10% FBS and 1% penicillin-streptomycin. When the cells were cultured until the density reached 70% to 80% of a container, the medium was replaced with an FBS-free medium, and the cells were cultured and underwent a starvation process for 24 hours. Next, the cells were transferred to an FBS-containing medium, treated with EGF, which is a Ras activator, by dilution to a concentration of 100 ng/ml, and then allowed for a reaction at 37° C. for 5 minutes to prepare each sample. Measurement of the activity of Ras proteins in each sample was performed in the same manner as described in Example 2.
# (§2) The same protein of which the Ras activity was measured in Example 3 was subjected to electrophoresis by using NuPAGETM 4-12% Bris-Tris Gel (Invitrogen).
# To more accurately compare the ERK activity, the electrophoresed proteins were transferred to a hybond-ECL membrane, and the membrane was blocked with 3% skim milk. Next, ERK and p-ERK antibodies were reacted on the membrane at 4° C. for 24 hours, and then washed by using TBST three times. […] The expression ratios of ERK and p-ERK in the washed membrane were measured.
# [1] = test system: phosphorylated ERK (p-ERK); assay: Electrophoresis comparison of p-ERK expression in fibroblasts upon Ataluren treatment (FIG. 4); details: Ataluren 20 μg/ml or 30 μg/ml, electrophoresis (FIG. 4); for expression of p-ERK: fibroblasts of neurofibromatosis patients in which the activity of Ras proteins has been decreased
# Method: as §1, §2
# [2] = test system: GTP-bound and activated RAS (Ras-GTP) protein; assay: G-LISA Ras activation assay in skin fibroblasts after EGF stimulation upon Ataluren treatment; details: skin fibroblasts of neurofibromatosis patients (NF1 stop codon mutation) with increased Ras activity compared to normal individuals; Ataluren 20 μg/ml and 30 μg/ml (FIG. 3: 30 μg/ml); EGF 100 ng/ml
# Method: The skin fibroblasts from donated normal individuals and neurofibromatosis patients were cultured in a DMEM supplemented with 10% FBS and 1% penicillin-streptomycin. When the cells were cultured until the density reached 70% to 80% of a container, the medium was replaced with an FBS-free medium, and the cells were cultured and subjected to a starvation process for 24 hours. Next, the cells were transferred to an FBS-containing medium, treated with epidermal growth factor (EGF), which is a Ras activator, by dilution to a concentration of 100 ng/ml, and then allowed for a reaction at 37° C. for 5 minutes to prepare each sample. To analyze the activity of the RAS proteins, a G-LISA Ras activation assay biochem Kit of Cytoskeleton Company (Absorbance Based) (Cytoskeleton, Cat No. BK131), which enables the measurement of a small number of cells and a large number of cells at the same time by compensating for the disadvantages of the pull-down assay, was used.
# Briefly, in a method of analyzing the activity of the RAS proteins, cells were lysed by using a cell lysis solution included in the kit after treatment with EGF, only the supernatant was obtained, and the proteins contained in the supernatant were quantified. […] Next, an HRP detection reagent was added and a reaction was allowed for 15 minutes at room temperature to measure the absorbance at 490 nm. […]
# [3] = fibroblasts of normal individuals
structure (smiles),measurement,setting,value
"O=C(O)c1cccc(-c2noc(-c3ccccc3F)n2)c1 [Ataluren, 3-[5-(2-fluoro-phenyl)-[1,2,4]oxadiazol-3-yl]-benzoic acid]",expression of p-ERK (expression ratios of ERK and p-ERK),p-ERK protein; fibroblasts of neurofibromatosis patients in which the activity of Ras proteins has been decreased,decreased
same,expression level of p-ERK protein (expression ratios of ERK and p-ERK),p-ERK protein; [3],slightly increased
same,expression of p-ERK,[1],decreased
same,expression of p-ERK,[1]; listed as ataluren,significantly decreased
same,expression of phosphorylated ERK (p-ERK),[1]; [3],no change
same,signal of Ras-GTP (activity of Ras proteins),[2],significantly decreased

# Reference: patent US20250137059A1, “ACTIVATED RAS AS THERAPEUTIC AND DIAGNOSTIC TARGET FOR NEUROFIBROMATOSIS AND USE THEREOF” (THE ASAN FOUNDATION, priority 2021, published 2025)
